Data on 110 compounds can be found in PubChem BioAssay AID1159536 (DiRusso Lab, Biochemistry Department, University of Nebraska, 2015).

SMILES strings stand for the structures. pEC50: −log10 of the molar value. Results filed as inconclusive are left out. Activity calls are given as the source filed them. How the calls were made is not given here.

In the test the test system is Chlamydomonas reinhardtii, Nile Red lipid fluorescence, 72 h. The test can be described thus: algal triacylglycerol accumulation inducers, dose response, qHTS, Chlamydomonas reinhardtii (AID 1159536). A general note: In qHTS, concentration-response curves come from the screen itself.
What is called pEC50 is the negative decadic logarithm of the EC50, by convention in mol/L. With `Nc1ccc(F)cc1C(=O)c1ccccc1`, the pEC50 was 5.15. Regarding `CN1CCN(Cc2ccc3c(c2)Cc2ccccc2-3)CC1`, the negative-log EC50 (pEC50) was 5.00. The term EC50 denotes the concentration giving half of the maximal effect. `Cc1ccc(C(=O)c2ccc(N3CCN(C)CC3)c(F)c2)cc1C`: the EC50 is 13.4 µM (inactive). Take `CC1CCCN(C(=O)COc2ccc(Cl)cc2)C1` (stereo not given): the pEC50 is 5.90. As to `COc1ccc(NC(=O)CCC2CCCCC2)c([N+](=O)[O-])c1`, the pEC50 is 5.17. On to `CC(CNC(=O)c1ccc(C(C)(C)C)cc1)CN(C)C` (stereo not given), for which the pEC50 is 4.99. Same read-out and setting: with `C1=CC2CC1CC2CN1CCN(Cc2ccco2)CC1` (stereo not given) the figure was 5.60; with `CCN(CC)CC(=O)Nc1ccc(Br)cc1`, 4.98.

Turning to `CN1CCN(CCOc2ccc(C(C)(C)c3ccccc3)cc2)CC1`, the EC50 is 2.37 µM (inactive). Take `Cc1cccc(OCCCCN2CCOCC2)c1`: the negative logarithm of the EC50 (pEC50) was 5.57. With `CCOc1c(Cl)cc(C(=O)Nc2cccc([N+](=O)[O-])c2)cc1Cl`, the EC50 is 13.4 µM (inactive).

With `Cc1ccc(C)c(N2CCN(Cc3ccc([N+](=O)[O-])cc3)CC2)c1`, the pEC50 is 5.89. Turning to `CCOc1ccc(C(=O)NCCNC(=O)c2ccc(OCC)cc2)cc1`, the EC50 is 19.9 µM (inactive). With `COc1ccc(OCCCN2CCCC(C)C2)cc1` (stereo not given), the pEC50 was 4.90.

For `Cc1ccc(C(C)C)cc1OCCCCN1CCOCC1`, the negative logarithm of the EC50 (pEC50) is 5.40.

`COc1ccc(CN(C)C2CCCCC2)c(C)c1C`: the negative-log EC50 (pEC50) is 6.22. Take `N#Cc1c(-n2ncnc2-c2cccnc2)sc2c1CCCCC2`: the EC50 is 2.47 µM (inactive). Turning to `O=C1C2C3CCC(C3)C2C(=O)N1c1nccs1` (stereo not given), the EC50 is 13.5 µM (inactive).

For `Cc1c(NC(=O)COc2ccc(Br)cc2)cccc1[N+](=O)[O-]`, the EC50 is 1.37 µM (inactive). On to `CC(CCc1ccc(O)cc1)NC1C2CC3CC(C2)CC1C3` (stereo not given), for which the negative-log EC50 (pEC50) was 5.56. Same read-out and setting: the same measure for `COc1cc(C)nc(NCc2ccccc2)n1`: 5.88; for `Cc1ccc(C(C)C)cc1OCCOCCN1CCOCC1`: 5.66; for `c1coc(CN2CCN(C3CCCCC3)CC2)c1`: 4.92. Consider `O=C(C1COc2ccccc2O1)N1CCN(Cc2ccccc2)CC1` (stereo not given), for which the pEC50 was 4.98. Still for that read-out and setting: the same measure for `c1coc(CN2CCN(C3CCCCCC3)CC2)c1`: 5.32; for `CC1CCCC(N2CCN(Cc3ccccc3)CC2)C1` (stereo not given): 6.09; for `CCC(C)c1ccccc1OCCOCCN1CCOCC1` (stereo not given): 4.88.

For the compound `CCC1CCC(N2CCN(CC)CC2)CC1` (stereo not given), the negative logarithm of the EC50 (pEC50) was 5.60.

Regarding `CCOc1ccc(CN2CCN(c3ccc(F)cc3)CC2)cc1`, the negative logarithm of the EC50 (pEC50) was 6.62.

Consider `O=[N+]([O-])c1ccc(CN2CCN(c3ccccc3)CC2)cc1`, for which the negative-log EC50 (pEC50) was 6.76. Consider `CC(C)NC(=O)c1ccccc1NC(=O)c1ccc(Br)cc1`, for which the negative-log EC50 (pEC50) is 6.00. Same read-out and setting: the same measure for `Oc1ccc(Br)cc1CN1CCC(N2CCOCC2)CC1`: 4.64. Still for that read-out and setting: with `CCc1ccc(CN2CCN(CCO)CC2)cc1` the figure was 5.12; with `O=S(=O)(c1ccc(F)cc1)N1CCN(C2CCCCC2)CC1`, 4.99. On the same count and under the same terms, the same measure for `CN(Cc1ccc([N+](=O)[O-])cc1)C1CCCCC1`: 7.06; for `C=CCNCC(=O)NC12CC3CC(CC(C3)C1)C2`: 5.55; for `Cc1cc(Br)ccc1OCCCCN1CCN(C)CC1`: 5.47. For the compound `O=C(CN1CCCCC1)Nc1ncc(Cc2ccc(Br)cc2)s1`, the EC50 was 1.27 µM (inactive). As for `COc1ccccc1N1CCN(C2CCN(CC3CC4C=CC3C4)CC2)CC1` (stereo not given), the pEC50 was 4.98. Same read-out and setting: with `Clc1cc(Br)ccc1OCCCN1CCOCC1` the figure was 5.35.

Regarding `O=C(Nc1ccc(Cc2ccncc2)cc1)c1cc(Br)ccc1Cl`, the EC50 is 2.29 µM (inactive).

Turning to `COc1ccccc1N1CCN(Cc2ccc(Cl)cc2)CC1`, the pEC50 was 5.79. Same read-out and setting: with `Cc1cc(OCC(O)CN2CCN(CCO)CC2)ccc1C(C)C` (stereo not given) the figure was 6.09. The same measure, in the same setting: with `CCOc1ccc(CN2CCN(c3ccccc3C)CC2)cc1` the figure was 5.89.

Regarding `Clc1ccccc1-c1nnc(-c2ccccc2)o1`, the pEC50 is 5.57. Turning to `COc1ccc(CN2CCN(CC3CC4C=CC3C4)CC2)cc1OC` (stereo not given), the pEC50 was 5.41. Same read-out and setting: with `COc1cccc(CN2CCN(Cc3ccc(F)cc3)CC2)c1OC` the figure was 6.19; with `C/C(=C\c1ccccc1)CN(C)CCN(C)C`, 5.58. The same measure, in the same setting: with `CCN(Cc1ccccc1)C(=O)C1CCN(Cc2ccccc2F)CC1` the figure was 5.88. In the case of `CC(=O)N(C1=C(Nc2ccccc2)C(=O)c2ccccc2C1=O)c1ccccc1`, the EC50 is 15.2 µM (inactive). Turning to `c1ccc(CCN2CCN(c3ccccc3)CC2)cc1`, the negative logarithm of the EC50 (pEC50) is 6.80. For the compound `Cc1cc(C=O)c(C)n1-c1ccc(Br)cc1F`, the EC50 is 12 µM (inactive). As for `CCN1CCN(C(=O)c2ccc(C(C)(C)C)cc2)CC1`, the pEC50 is 5.85.

On to `Fc1ccc(N2CCN(Cc3ccccc3)CC2)cc1`, for which the pEC50 was 5.86. With `O=C1CC(N2CCc3ccccc3C2)C(=O)N1c1ccc([N+](=O)[O-])cc1` (stereo not given), the EC50 was 15.7 µM (inactive). Turning to `CN(C)c1ccc(NC(=O)Nc2ccc3nc(-c4ccccn4)c(-c4ccccn4)nc3c2)cc1`, the pEC50 was 5.88.

Consider `C/C=C(\C)CN1CCN(C/C=C/c2ccccc2)CC1`, for which the negative-log EC50 (pEC50) was 5.89. Same read-out and setting: the same measure for `Cc1cc(Br)ccc1OCCCN1CCN(C)CC1`: 5.66; for `CCc1ccc(OCCOCCN2CCOCC2)cc1`: 5.00; for `Clc1cccc(N2CCN(Cc3ccsc3)CC2)c1`: 5.40. For `Fc1ccccc1N1CCN(CC2CCCCC2)CC1`, the pEC50 was 4.98. For `Cc1cc(OCCN2CCN(C)CC2)ccc1C(C)C`, the pEC50 was 5.59.

For the compound `Cc1cccc(N2CCN(Cc3ccc([N+](=O)[O-])cc3)CC2)c1C`, the negative-log EC50 (pEC50) was 4.96. On the same count and under the same terms, the same measure for `C(=C\c1ccccc1)/CN1CCN(C2CCc3ccccc3C2)CC1` (stereo not given): 5.00. Take `CC(C)C(NS(=O)(=O)c1cccs1)C(C)C`: the EC50 was 21.6 µM (inactive). Take `CCN(CC)CC#CCOc1ccccc1`: the negative-log EC50 (pEC50) is 4.94. As to `CN1CCC(N(C)Cc2cccc(Oc3ccccc3)c2)CC1`, the negative-log EC50 (pEC50) was 5.00. Consider `Cc1cc(C)c(S(=O)(=O)NCCCN2CCOCC2)cc1Br`, for which the pEC50 is 6.11.

In the case of `O=[N+]([O-])c1ccc(CN2CCN(C3CC4CCC3C4)CC2)cc1` (stereo not given), the pEC50 is 5.60. `COc1cc(C)c(CN2CCN(Cc3ccc4c(c3)OCO4)CC2)cc1C`: the negative-log EC50 (pEC50) was 5.69.

On to `O=[N+]([O-])c1ccc(CN2CCN(Cc3cc(Br)ccc3O)CC2)cc1`, for which the pEC50 was 5.61. In the case of `CCC(C)c1ccccc1OCCCN1CCOCC1` (stereo not given), the pEC50 was 5.43. Same read-out and setting: with `Brc1ccc(CN2CCN(c3ccccc3)CC2)cc1` the figure was 4.66; with `CCN(Cc1ccccc1)C(=O)C1CCN(CCCc2ccccc2)CC1`, 5.89.

`c1cc2c(cc1CNC1CCCC1)OCO2`: the pEC50 was 4.97. As to `Cc1c(NC(=O)c2c(F)c(F)c(F)c(F)c2F)c(=O)n(-c2ccccc2)n1C`, the EC50 was 19 µM (inactive). The same measure, in the same setting: with `CN1CCCN(Cc2ccc([N+](=O)[O-])o2)CC1` the figure was 15 µM (inactive). Take `O=C(c1ccc(CN2CCc3ccccc3C2)cc1)N1CCN(c2ccccc2F)CC1`: the negative logarithm of the EC50 (pEC50) is 5.22.

Take `COc1ccccc1N1CCN(Cc2ccc(C)cc2)CC1`: the negative logarithm of the EC50 (pEC50) is 5.44. Regarding `CCc1ccc(CN2CCN(c3ccccc3C)CC2)cc1`, the EC50 is 1.33 µM (inactive).

On to `O=C(CN1CCCCC1)NC12CC3CC(CC(C3)C1)C2`, for which the pEC50 is 5.46. Same read-out and setting: with `CN1CCCN(Cc2cccc(Oc3ccccc3)c2)CC1` the figure was 5.00. The same measure, in the same setting: with `Cc1ccccc1N1CCN(Cc2ccc(O)cc2)CC1` the figure was 5.00. On the same count and under the same terms, with `Clc1ccccc1OCCCCN1CCOCC1` the figure was 5.27.

Take `O=C(Nc1ccc(Cc2ccncc2)cc1)c1ccc([N+](=O)[O-])cc1Cl`: the EC50 was 1.21 µM (inactive). As for `CN(c1ccc(C(=O)NC2CCCCCC2)cc1)S(=O)(=O)c1ccccc1`, the negative logarithm of the EC50 (pEC50) was 5.30.

Consider `C1=CC2CC1CC2CN1CCN(Cc2ccccc2)CC1` (stereo not given), for which the pEC50 was 5.21. On to `Cc1cccc(-c2noc(COc3ccc(Br)cc3)n2)c1`, for which the EC50 was 9.11 µM (inactive). Regarding `O=C(c1ccc([N+](=O)[O-])cc1)N1CCN(CC2CC3C=CC2C3)CC1` (stereo not given), the negative-log EC50 (pEC50) is 5.22. For the compound `O=[N+]([O-])c1ccc(OCCCCN2CCOCC2)cc1`, the negative logarithm of the EC50 (pEC50) is 4.85.

Regarding `Cc1ccc(C(=O)Nc2ccc(Cl)cc2C)cc1C`, the EC50 was 16.6 µM (inactive). Consider `O=C(CN1CCCCC1)Nc1ncc(Cc2ccc(F)cc2)s1`, for which the EC50 is 0.0585 µM (inactive). Consider `CCN(CC(O)COc1ccc(Br)cc1)C1CCCCC1` (stereo not given), for which the negative-log EC50 (pEC50) was 4.99.

For the compound `O=C(Nc1ccc([N+](=O)[O-])cc1)c1ccccc1Cl`, the negative logarithm of the EC50 (pEC50) was 5.29. As for `O=C(O)CCSCC(=O)c1ccc(NS(=O)(=O)c2ccccc2)cc1`, the EC50 is 30.6 µM (inactive). With `C(=C\c1ccccc1)/CN1CCN(C2C3CC4CC(C3)CC2C4)CC1` (stereo not given), the negative logarithm of the EC50 (pEC50) was 5.40.

Consider `C=CCc1cccc(C)c1OCCCN1CCN(C)CC1`, for which the pEC50 is 5.71. On to `CC(=O)NC1=C(N2CCN(Cc3ccccc3)CC2)C(=O)c2ccccc2C1=O`, for which the EC50 was 14.3 µM (inactive). Regarding `COc1ccc(CN(C)C2CCCCC2)cc1C`, the pEC50 was 5.57. Turning to `O=C(Nc1ccc(S(=O)(=O)N2CCCC2)cc1)c1ccc(Cl)cc1Cl`, the EC50 is 2.32 µM (inactive). For `Cc1cc(C)c(C)c(OCCCCN2CCOCC2)c1`, the negative-log EC50 (pEC50) is 4.82. Still for that read-out and setting: the same measure for `NC(=O)c1cc(-c2ccccc2)sc1NC(=O)c1ccc(OC(F)F)cc1`: 6.81; for `Cc1ccccc1OCCCCN1CCOCC1`: 5.01.

As to `CN1CCN(CCCOc2ccc(Br)cc2)CC1`, the negative logarithm of the EC50 (pEC50) was 5.01. Take `Cc1cc(Cl)cc(C)c1OCCn1ccnc1`: the negative-log EC50 (pEC50) was 5.89. The same measure, in the same setting: the same measure for `Cc1cc(C(C)(C)C)ccc1OCCN1CCN(C)CC1`: 5.35; for `O=[N+]([O-])c1ccc(CN2CCN(Cc3ccccc3F)CC2)cc1`: 5.08. For the compound `Cc1cc(C(C)(C)C)ccc1OCCOCCN1CCN(C)CC1`, the EC50 is 0.566 µM (inactive). In the case of `Nc1ccc(C(=O)Nc2ccc(Cl)cc2Cl)cc1`, the pEC50 was 5.83. For `O=C(CN1CCCCC1)NCC12CC3CC(CC(C3)C1)C2`, the negative logarithm of the EC50 (pEC50) is 5.03.
